According to US11980620B2, “Compounds and methods for treatment of Diamond Blackfan anemia” (THE CHILDREN'S MEDICAL CENTER CORPORATION, priority 2017, dated 2024):
“Also recorded” adds a separate entry of the source.

Assays:
[1] = test system: rps29+/- zebrafish embryos; assay: Hemoglobin (benzidine) staining in rps29 mutant zebrafish embryos; assay type: in vivo
Protocol: (FIG. 10A) SMER28 rescues RBC output in rps29^+/− zebrafish embryos. The level of hemoglobin in the yolk sac was visualized 40hpf with benzidine staining. Images are representative of the proportion of embryos indicated (of total counted). (FIG. 10B) Quantitation of SMER28 rescue for a range of 0.1-1 μM, with embryos grouped by high, medium, and low levels of hemoglobin staining. (FIG. 10C) Peripheral blood (PB) RBC counts and hematocrit in mice with irradiation-induced anemia. Mice were treated with the PEG400-based vehicle containing DMSO (VEH) (n=11), 1 mg/kg Dex (sodium-phosphate) (n=13), or 10 mg/kg SMER28 (n=9) for 3 weeks, bled, and assessed. Data are combined from 3 independent experiments. (FIG. 10D) Erythroid cells as proportion of the human graft in mice transplanted with DBA CD34-5F progenitors, and treated as in (FIG. 1c). (FIG. 10E) Levels of human engraftment in NSG mouse bone marrow (BM) transplanted with CB CD34^+ cells. Mice were treated with DMSO plus vehicle (VEH) (n=10), 1 mg/kg Dex (sodium-phosphate) (n=6), or 2 mg/kg SMER28 (n=11) for 4 weeks. (FIG. 10F) The proportion of erythroid, myeloid, and lymphoid (B cells) lineages within the human graft in vehicle- and SMER28-treated mice transplanted with CB CD34^+ cells. Only the effect on the erythroid lineage was significant. Data in FIGS. 10E-10G are pooled from 2 independent experiments. […]

CB CD34+ RPS19sh cells = assay: Erythroid differentiation of CB CD34+ progenitors transduced with shRNAs for RPS19; assay type: cell-based, human
Protocol: (FIG. 8A) The distribution of 1440 compounds by Z-score in a proliferation-based screen of the Sigma LOPAC chemical library. DBA CD34-5F cells were plated in erythroid-promoting conditions in 384-well format. Erythroid proliferation was measured in the presence of 5 μM of each compound, and converted into Z-scores. The screen was carried out with 3 RPS19 DBA and 2 normal iPSC lines. (FIG. 88) Dose-dependent effect of SMER28 (in μM) on erythroid differentiation, shown as the absolute number of erythroid cells in each drug-treated condition normalized to vehicle (DMSO) control. Erythroid cells were analyzed on day 9 of differentiation using markers CD71 and GlyA. […] (FIG. 8C) Absolute number of erythroid cells (analyzed on day 9) in each drug-treated condition normalized to vehicle (DMSO) control (4 independent experiments). […]
(FIG. 12A) Erythroid differentiation of control and DBA CD34-5F cells treated with DMSO vehicle or SMER28 (10 μM) during the initial CD34^+ progenitor phase (day 0-4 of differentiation), or stage I of erythroid culture (day 4-9 of differentiation). Percent of erythroid cells after stage I of differentiation is indicated in top left for each condition, and quantitated in (FIG. 12B). […] GFP^+ RPS19^sh and GFP^− control cells were quantitated separately. […] Arrows indicate enucleated RBCs, which are quantitated by flow cytometry. […]

Compound: C=CCNc1ncnc2ccc(Br)cc12 [SMER28, 6-Bromo-N-2-propenyl-4-quinazolinam]
- embryos showing high levels of hemoglobin ([1]; 1 μM, 40 hpf, vehicle-treated controls 20%, p<0.05): Over 50%
- hemoglobin staining / RBC output in yolk sac ([1]; treated for 40 hpf, benzidine staining): robust increase; also recorded: rescues
- erythroid output of RPS19sh cells (CB CD34+ RPS19sh cells; dose curve, highest activity at lower doses): robustly increased
- erythroid output (CB CD34+ RPS19sh cells; treatment of undifferentiated CD34+ RPS19sh cells): sufficient to improve erythroid output
